Legend:
IRAK4 [1] = target: T1, IRAK4 (Homo sapiens, UniProt Q9NWZ3); assay: IRAK4 Degradation Assay with Human Serum (Karpas299, HTRF/TR-FRET); format: cell-based; conditions: Karpas-299 in human serum, 24 hrs treatment; for DC50: read-out: IRAK4 degradtion with human serum assay DC50; for Dmax: read-out: IRAK4 degradtion with human serum assay Dmax (%)
T1 construct: endogenous in cells; host or cells: Karpas299
T1 sequence (Q9NWZ3 1-460): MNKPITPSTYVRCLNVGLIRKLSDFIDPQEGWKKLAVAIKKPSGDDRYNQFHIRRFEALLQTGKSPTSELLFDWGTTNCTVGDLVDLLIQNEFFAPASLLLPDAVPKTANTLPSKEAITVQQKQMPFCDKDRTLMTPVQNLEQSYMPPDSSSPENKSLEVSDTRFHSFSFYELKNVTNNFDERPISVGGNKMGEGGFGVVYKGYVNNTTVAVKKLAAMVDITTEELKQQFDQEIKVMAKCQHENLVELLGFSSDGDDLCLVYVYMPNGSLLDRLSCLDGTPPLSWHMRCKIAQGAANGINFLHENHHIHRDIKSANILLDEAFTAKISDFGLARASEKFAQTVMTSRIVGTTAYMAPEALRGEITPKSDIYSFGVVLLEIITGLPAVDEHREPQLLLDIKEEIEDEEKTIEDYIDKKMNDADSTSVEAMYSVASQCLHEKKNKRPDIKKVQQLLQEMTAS
How it was run: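 Remaining IRAK4 measured by TR-FRET immunoassay on lysates of Karpas299 cells exposed 24 h to compound dilution series in human serum AB. DC50 derived from a Hill-slope fit of % degradation versus concentration.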

IRAK4 [2] = target: T1, IRAK4; assay: IRAK4 Degradation Assay (Karpas299, HTRF/TR-FRET); format: cell-based; conditions: Karpas-299 cells, 24 h treatment; for Dmax: read-out: IRAK4 in Karpas-299 (24 h) Dmax (%); for DC50: read-out: IRAK4 in Karpas-299 (24 h) DC50
How it was run: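 Compound potency as DC50 (IC50) came from four-parameter fits of percent IRAK4 degradation. IRAK4 was measured by HTRF (665/620 nm) in lysates of Karpas299 cells seeded at 0.2 million per well. Cells had been treated with compound dilutions for 5 or 24 h.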

[3] = maximum percentage of degradation

Row | SMILES | DC50 (IRAK4 [1]) | Dmax (IRAK4 [1]) | Dmax (IRAK4 [2]; [3]) | DC50 (IRAK4 [2]) | IRAK4 degradtion with human serum assay Dmax (%) (IRAK4 [1]) | IRAK4 in Karpas-299 (24 h) Dmax (%) (IRAK4 [2]; [3])
1 | COC[C@@H]1CN(C[C@@H]2CCN(c3cc(F)c([C@H]4CCC(=O)NC4=O)c(F)c3)C2)CCN1[C@H]1CC[C@H](n2cc3cc(NC(=O)c4ccc5cc(C#N)cnn45)c(C(C)(C)O)cc3n2)CC1 [Example 388, 3-cyano-N-(2-((1S,4r)-4-((S)-4-(((S)-1-(4-((R)-2,6-dioxopiperidin-3-yl)-3,5-difluorophenyl)pyrrolidin-3-yl)methyl)-2-(methoxymethyl)piperazin-1-yl)cyclohexyl)-6-(2-hydroxypropan-2-yl)-2H-indazol-5-yl)pyrrolo[1,2-b]pyridazine-7-carboxamide] | 12 nM | 98% | 97% | 1.1 nM | – | –
2 | CC(C)(O)c1cc2nn([C@H]3CC[C@H](N4CCN(CCc5cc(F)c([C@H]6CCC(=O)NC6=O)c(F)c5)C[C@@H]4CC#N)CC3)cc2cc1NC(=O)c1ccc2cc(C#N)cnn12 [Example 389, 3-cyano-N-(2-((1S,4r)-4-((S)-2-(cyanomethyl)-4-(4-((R)-2,6-dioxopiperidin-3-yl)-3,5-difluorophenethyl)piperazin-1-yl)cyclohexyl)-6-(2-hydroxypropan-2-yl)-2H-indazol-5-yl)pyrrolo[1,2-b]pyridazine-7-carboxamide] | 13 nM | 100% | 94% | 1 nM | – | –
3 | CC(C)(O)c1cc2nn([C@H]3CC[C@H](C4CCN(CC5CN(c6cc(F)c([C@H]7CCC(=O)NC7=O)c(F)c6)C5)CC4)CC3)cc2cc1NC(=O)c1ccc2cc(C#N)cnn12 [Example 390, 3-cyano-N-(2-((1r,4r)-4-(1-((1-(4-((R)-2,6-dioxopiperidin-3-yl)-3,5-difluorophenyl)azetidin-3-yl)methyl)piperidin-4-yl)cyclohexyl)-6-(2-hydroxypropan-2-yl)-2H-indazol-5-yl)pyrrolo[1,2-b]pyridazine-7-carboxamide] | 24 nM | 99% | 99% | 2 nM | – | –
4 | CC(C)(O)c1cc2nn([C@H]3CC[C@H](N4CCN([C@H]5CCN(c6cc(F)c(C7CCC(=O)NC7=O)c(F)c6)C5)CC4)CC3)cc2cc1NC(=O)c1ccc2cc(C#N)cnn12 (stereo partly drawn) [Example 395, 3-cyano-N-(2-((1S,4r)-4-(4-((3S)-1-(4-(2,6-dioxopiperidin-3-yl)-3,5-difluorophenyl)pyrrolidin-3-yl)piperazin-1-yl)cyclohexyl)-6-(2-hydroxypropan-2-yl)-2H-indazol-5-yl)pyrrolo[1,2-b]pyridazine-7-carboxamide] | 21 nM | 99% | 97% | 0.8 nM | – | –
5 | CC(C)(O)c1cc2nn([C@H]3CC[C@H](N4CCN([C@@H]5CCN(c6cc(F)c(C7CCC(=O)NC7=O)c(F)c6)C5)CC4)CC3)cc2cc1NC(=O)c1ccc2cc(C#N)cnn12 (stereo partly drawn) [Example 396, 3-cyano-N-(2-((1R,4r)-4-(4-((3R)-1-(4-(2,6-dioxopiperidin-3-yl)-3,5-difluorophenyl)pyrrolidin-3-yl)piperazin-1-yl)cyclohexyl)-6-(2-hydroxypropan-2-yl)-2H-indazol-5-yl)pyrrolo[1,2-b]pyridazine-7-carboxamide] | 34 nM | 95% | 98% | 0.8 nM | – | –
6 | CC(C)(O)c1cc2nn([C@H]3CC[C@H](N4CCN(CC5CN(c6cc(F)c([C@H]7CCC(=O)NC7=O)c(F)c6)C5)CC4)CC3)cc2cc1NC(=O)c1ccc2n1NCC(C#N)=C2 [Example 397, 3-cyano-N-(2-((1r,4r)-4-(4-((1-(4-((R)-2,6-dioxopiperidin-3-yl)-3,5-difluorophenyl)azetidin-3-yl)methyl)piperazin-1-yl)cyclohexyl)-6-(2-hydroxypropan-2-yl)-2H-indazol-5-yl)-1,2-dihydropyrrolo[1,2-b]pyridazine-7-carboxamide] | 12 nM | – | – | 1.7 nM | 96% | 95%
7 | CC(C)(O)c1cc2nn([C@H]3CC[C@H](N4CCN(C5CCN(c6cc(F)c([C@H]7CCC(=O)NC7=O)c(F)c6)CC5)C[C@@H]4CO)CC3)cc2cc1NC(=O)c1ccc2cc(C#N)cnn12 [Example 399, 3-cyano-N-(2-((1R,4r)-4-((R)-4-(1-(4-((R)-2,6-dioxopiperidin-3-yl)-3,5-difluorophenyl)piperidin-4-yl)-2-(hydroxymethyl)piperazin-1-yl)cyclohexyl)-6-(2-hydroxypropan-2-yl)-2H-indazol-5-yl)pyrrolo[1,2-b]pyridazine-7-carboxamide] | 11 nM | 99% | 96% | 0.5 nM | – | –

Continued, values first:

Row | DC50 (IRAK4 [1]) | Dmax (IRAK4 [1]) | Dmax (IRAK4 [2]; [3]) | DC50 (IRAK4 [2]) | IRAK4 degradtion with human serum assay Dmax (%) (IRAK4 [1]) | IRAK4 in Karpas-299 (24 h) Dmax (%) (IRAK4 [2]; [3]) | SMILES
8 | 11 nM | 96% | 98% | 0.4 nM | – | – | CC(C)(O)c1cc2nn([C@H]3CC[C@H](N4CCN(C[C@H]5C[C@H](c6cc(F)c([C@H]7CCC(=O)NC7=O)c(F)c6)C5)CC4)CC3)cc2cc1NC(=O)c1ccc2cc(C#N)cnn12 [Example 382, 3-cyano-N-(2-((1R,4r)-4-(4-(((1R,3R)-3-(4-((R)-2,6-dioxopiperidin-3-yl)-3,5-difluorophenyl)cyclobutyl)methyl)piperazin-1-yl)cyclohexyl)-6-(2-hydroxypropan-2-yl)-2H-indazol-5-yl)pyrrolo[1,2-b]pyridazine-7-carboxamide]
9 | 5.8 nM | 93% | 94% | 1.6 nM | – | – | CC(C)(O)c1cc2nn([C@H]3CC[C@H](N4CCN(C[C@H]5C[C@@H](c6cc(F)c([C@H]7CCC(=O)NC7=O)c(F)c6)C5)CC4)CC3)cc2cc1NC(=O)c1ccc2cc(C#N)cnn12 [Example 383, 3-cyano-N-(2-((1R,4r)-4-(4-(((1S,3S)-3-(4-((R)-2,6-dioxopiperidin-3-yl)-3,5-difluorophenyl)cyclobutyl)methyl)piperazin-1-yl)cyclohexyl)-6-(2-hydroxypropan-2-yl)-2H-indazol-5-yl)pyrrolo[1,2-b]pyridazine-7-carboxamide]
10 | 11 nM | 98% | 97% | 0.9 nM | – | – | CC(C)(O)c1cc2nn([C@H]3CC[C@H](N4CCN(C[C@@H]5CCN(c6cc(F)c([C@H]7CCC(=O)NC7=O)c(F)c6)C5)CC4)CC3)cc2cc1NC(=O)c1ccc2cc(C#N)cnn12 [Example 392, 3-cyano-N-(2-((1S,4r)-4-(4-(((S)-1-(4-((R)-2,6-dioxopiperidin-3-yl)-3,5-difluorophenyl)pyrrolidin-3-yl)methyl)piperazin-1-yl)cyclohexyl)-6-(2-hydroxypropan-2-yl)-2H-indazol-5-yl)pyrrolo[1,2-b]pyridazine-7-carboxamide]
11 | 3.8 nM | 97% | 97% | 0.5 nM | – | – | CC(C)(O)c1cc2nn([C@H]3CC[C@H](N4CCN(CC5CN(c6cc(F)c([C@H]7CCC(=O)NC7=O)c(F)c6)C5)C[C@@H]4CO)CC3)cc2cc1NC(=O)c1ccc2cc(C#N)cnn12 [Example 400, 3-cyano-N-(2-((1R,4r)-4-((R)-4-((1-(4-((R)-2,6-dioxopiperidin-3-yl)-3,5-difluorophenyl)azetidin-3-yl)methyl)-2-(hydroxymethyl)piperazin-1-yl)cyclohexyl)-6-(2-hydroxypropan-2-yl)-2H-indazol-5-yl)pyrrolo[1,2-b]pyridazine-7-carboxamide]

— patent US20250195513A1, “DEGRADATION OF IRAK4 BY CONJUGATION OF IRAK4 INHIBITORS WITH E3 LIGASE LIGAND AND METHODS OF USE” (BeiGene, Ltd., priority 2022, published 2025)
